From patent publication US9409907B2, “Inhibitor compounds” (Cancer Research Technology Limited, priority 2012, dated 2016) come the findings set out here.

The target in the test is full length MPS1 (Homo sapiens (Human), UniProt P33981). Put plainly: Measurement of inhibition of MPS1 kinase (Caliper EZ reader mobility-shift enzyme assay). Conditions: full length MPS1 12.5 nM or 3 nM, H236 peptide 5 μM, ATP 10 μM, 60 min at room temperature. In kind it is biochemical. Here is the method: Measurement of Inhibition of MPS1 Kinase
Chain of full length MPS1 (P33981 whole entry): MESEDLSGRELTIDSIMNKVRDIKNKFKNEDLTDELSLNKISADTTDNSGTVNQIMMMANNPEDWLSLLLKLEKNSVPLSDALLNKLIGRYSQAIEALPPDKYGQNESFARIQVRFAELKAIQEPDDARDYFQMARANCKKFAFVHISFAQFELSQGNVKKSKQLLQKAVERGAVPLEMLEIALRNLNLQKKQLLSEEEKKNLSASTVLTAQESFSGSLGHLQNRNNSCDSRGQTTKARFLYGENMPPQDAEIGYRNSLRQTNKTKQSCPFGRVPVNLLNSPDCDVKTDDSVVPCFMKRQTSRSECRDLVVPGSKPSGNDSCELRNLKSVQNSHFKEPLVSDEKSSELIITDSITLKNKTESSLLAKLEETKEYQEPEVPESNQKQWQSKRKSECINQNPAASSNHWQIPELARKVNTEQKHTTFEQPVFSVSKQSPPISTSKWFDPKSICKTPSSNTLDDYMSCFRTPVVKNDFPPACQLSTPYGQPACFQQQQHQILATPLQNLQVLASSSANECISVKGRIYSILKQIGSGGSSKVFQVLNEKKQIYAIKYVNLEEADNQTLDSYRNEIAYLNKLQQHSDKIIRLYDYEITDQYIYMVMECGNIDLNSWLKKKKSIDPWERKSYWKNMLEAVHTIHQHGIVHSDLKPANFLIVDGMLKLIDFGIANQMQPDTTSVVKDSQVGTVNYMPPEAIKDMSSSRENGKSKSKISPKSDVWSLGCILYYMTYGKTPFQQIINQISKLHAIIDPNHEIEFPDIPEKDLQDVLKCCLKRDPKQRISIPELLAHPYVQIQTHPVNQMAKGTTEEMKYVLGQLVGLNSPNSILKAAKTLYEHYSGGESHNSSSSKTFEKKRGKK
The reaction was carried out for 60 min at room temperature and stopped by the addition of buffer (10 μl) containing 20 mM EDTA, 0.05% (v/v) Brij-35, in 0.1M HEPES-buffered saline (Free acid, Sigma, UK). The plate was read on a Caliper EZ reader II (Caliper Life Sciences).
The % inhibition of the compounds is calculated relative to the means of selected control wells.

In the case of `COc1cc(-c2cnn(C)c2)ccc1Nc1ncc2ccnc(-c3cnn(C(C)C)c3)c2n1` [Example 92, 8-(1-isopropyl-1H-pyrazol-4-yl)-N-(2-methoxy-4-(1-methyl-1H-pyrazol-4-yl)phenyl)pyrido[3,4-d]pyrimidin-2-amine], the IC50 came to 14 nM.
For `COc1cc(-c2cnn(C)c2)ccc1Nc1ncc2ccnc(NCC3COC3)c2n1` [Example 72, N2-(2-methoxy-4-(1-methyl-1H-pyrazol-4-yl)phenyl)-N8-(oxetan-3-ylmethyl)pyrido[3,4-d]pyrimidine-2,8-diamine], the IC50 was determined as 5 nM.
For `COc1nc(S(C)(=O)=O)ccc1Nc1ncc2ccnc(NCC(C)(C)C)c2n1` [Example 46, N2-(2-methoxy-6-(methylsulfonyl)pyridin-3-yl)-N8-neopentylpyrido[3,4-d]pyrimidine-2,8-diamine] the value was 17 nM.
For the compound `COc1cc(N2CCC(N3CCOCC3)CC2)ccc1Nc1ncc2ccnc(NCC(C)(C)C)c2n1` [Example 170, N2-(2-methoxy-4-(4-morpholinopiperidin-1-yl)phenyl)-N8-neopentylpyrido[3,4-d]pyrimidine-2,8-diamine], the IC50 turned out to be 4 nM.
Consider `COc1cc(-c2cnn(C)c2)ccc1Nc1ncc2ccnc(NCCO)c2n1` [Example 126, 2-(2-(2-Methoxy-4-(1-methyl-1H-pyrazol-4-yl)phenylamino)pyrido[3,4-d]pyrimidin-8-ylamino)ethanol], for which the IC50 was 11 nM.
On to `Cn1cc(-c2ccc(Nc3cc4c(-c5cnn(C)c5)cccc4cn3)c(Cl)c2)cn1` [Example 23], for which the IC50 amounted to 225 nM.
Turning to `COc1cc(-c2cnc(C)n2C)ccc1Nc1ncc2ccnc(-c3cnn(C)c3)c2n1` [Example 40, N-(4-(1,2-dimethyl-1H-imidazol-5-yl)-2-methoxyphenyl)-8-(1-methyl-1H-pyrazol-4-yl)pyrido[3,4-d]pyrimidin-2-amine], the IC50 was determined as 4 nM.
As to `COc1cc(-c2nncn2C)ccc1Nc1ncc2c(C)cnc(NCC(C)(C)C)c2n1` [Example 151, N^2-(2-methoxy-4-(4-methyl-4H-1,2,4-triazol-3-yl)phenyl)-5-methyl-N^8-neopentylpyrido[3,4-d]pyrimidine-2,8-diamine], the IC50 turned out to be 2 nM.
Turning to `COc1cc(-c2nncn2C)ccc1Nc1ncc2c(C)cnc(NCC3(C)COC3)c2n1` [Example 155, N^2-(2-methoxy-4-(4-methyl-4H-1,2,4-triazol-3-yl)phenyl)-5-methyl-N^8-((3-methyloxetan-3-yl)methyl)pyrido[3,4-d]pyrimidine-2,8-diamine], the IC50 is 4 nM.
On to `COc1cc(C(=O)N(C)C)ccc1Nc1ncc2ccnc(NCC(C)(C)OC)c2n1` [Example 194], for which the IC50 came to 11 nM.
As for `COc1cc(Cl)ccc1Nc1ncc2ccnc(N3CCC4(COC4)C3)c2n1` [Example 178, N-(4-Chloro-2-methoxyphenyl)-8-(2-oxa-6-azaspiro[3.4]octan-6-yl)pyrido[3,4-d]pyrimidin-2-amine], the IC50 is 24 nM.
With `COc1cc(-c2cnn(C)c2)ccc1Nc1ncc2ccnc(NC3(C)CCCCC3)c2n1` [Example 83, N2-(2-methoxy-4-(1-methyl-1H-pyrazol-4-yl)phenyl)-N8-(1-methylcyclohexyl)pyrido[3,4-d]pyrimidine-2,8-diamine] the figure was 19 nM; with `COc1cc(C(=O)N2CC(OC)C2)ccc1Nc1cc2c(-c3cccnc3)cccc2cn1` [Example 21, (3-Methoxy-4-((5-(pyridin-3-yl)isoquinolin-3-yl)amino)phenyl)(3-methoxyazetidin-1-yl)methanone], 30 nM; with `COc1cc(C#N)ccc1Nc1ncc2ccnc(N3CCC4(COC4)C3)c2n1` [Example 206], 17 nM.
Take `CN1CCC(NC(=O)c2ccc(Nc3cc4c(-c5cnn(C)c5)cccc4cn3)c(OC(F)(F)F)c2)CC1` [Example 6, 4-((5-(1-methyl-1H-pyrazol-4-yl)isoquinolin-3-yl)amino)-N-(1-methylpiperidin-4-yl)-3-(trifluoromethoxy)benzamide]: the IC50 was found to be 293 nM.
On to `COc1cc(-c2cnn(C)c2)ccc1Nc1ncc2ccnc(NCC3(CO)COC3)c2n1` [Example 132, (3-((2-(2-Methoxy-4-(1-methyl-1H-pyrazol-4-yl)phenylamino)pyrido[3,4-d]pyrimidin-8-ylamino)methyl)oxetan-3-yl)methanol], for which the IC50 was above 1000 nM.
For `COc1cc(C2CCOCC2)ccc1Nc1ncc2ccnc(NCC3(C)CCOC3)c2n1` (stereo not drawn) [Example 154, N^2-(2-methoxy-4-(tetrahydro-2H-pyran-4-yl)phenyl)-N^8-((3-methyltetrahydrofuran-3-yl)methyl)pyrido[3,4-d]pyrimidine-2,8-diamine], the IC50 came to 7 nM.
With `COc1cc(-c2cnn(C)c2)ccc1Nc1ncc2ccnc(NC3CCOC3)c2n1` (stereo not drawn) [Example 78, N2-(2-methoxy-4-(1-methyl-1H-pyrazol-4-yl)phenyl)-N8-(tetrahydrofuran-3-yl)pyrido[3,4-d]pyrimidine-2,8-diamine] the figure was 8 nM.
With `COc1cc(C(=O)N2CC(OC)C2)ccc1Nc1cc2c(-c3cnn(C4CCNCC4)c3)cccc2cn1` [Example 20, (3-Methoxy-4-((5-(1-(piperidin-4-yl)-1H-pyrazol-4-yl)isoquinolin-3-yl)amino)phenyl)(3-methoxyazetidin-1-yl)methanone] the figure was 20 nM.
With `COc1cc(-c2cnn(C)c2C)ccc1Nc1ncc2ccnc(NCC3(C)COC3)c2n1` [Example 146, N^2-(4-(1,5-dimethyl-1H-pyrazol-4-yl)-2-methoxyphenyl)-N^8-((3-methyloxetan-3-yl)methyl)pyrido[3,4-d]pyrimidine-2,8-diamine] the figure was 4 nM.
Consider `CCOc1cc(-c2cnn(C)c2)ccc1Nc1ncc2ccnc(N3CCC4(COC4)C3)c2n1` [Example 159, N-(2-ethoxy-4-(1-methyl-1H-pyrazol-4-yl)phenyl)-8-(2-oxa-6-azaspiro[3.4]octan-6-yl)pyrdio[3,4-d]pyrimidin-2-amine], for which the IC50 amounted to 5 nM.
With `COc1cc(-c2cnn(C)c2)ccc1Nc1ncc2ccnc(N(C)C3CCCC3)c2n1` [Example 59, N8-cyclopentyl-N2-(2-methoxy-4-(1-methyl-1H-pyrazol-4-yl)phenyl)-N8-methylpyrido[3,4-d]pyrimidine-2,8-diamine] the figure was 45 nM; with `COc1cc(C(=O)N2CC(OC)C2)ccc1Nc1cc2c(-c3cnn(C4CCN(C)CC4)c3)cccc2cn1` [Example 19, (3-Methoxy-4-((5-(1-(1-methylpiperidin-4-yl)-1H-pyrazol-4-yl)isoquinolin-3-yl)amino)phenyl)(3-methoxyazetidin-1-yl)methanone], 31 nM.
With `COc1cc(-c2cn(C)nc2C)ccc1Nc1ncc2ccnc(NCC3(C)CCOC3)c2n1` (stereo not drawn) [Example 191] the figure was 2 nM; with `COc1cc(-c2cnn(C)c2)ccc1Nc1cc2c(NC3CCCCC3)nccc2cn1` [Example 105, N1-cyclohexyl-N7-(2-methoxy-4-(1-methyl-1H-pyrazol-4-yl)phenyl)-2,6-naphthyridine-1,7-diamine], 56 nM.
For `COc1cc(C(=O)N2CC(OC)C2)ccc1Nc1ncc2ccnc(NCC(C)(C)C)c2n1` [Example 153, (3-methoxy-4-(8-(neopentylamino)pyrido[3,4-d]pyrimidin-2-ylamino)phenyl)(3-methoxyazetidin-1-yl)methanone], the IC50 was determined as 4 nM.
For `COc1cc(-c2cnn(C)c2)ccc1Nc1ncc2ccnc(NC3CCCC3)c2n1` [Example 39], the IC50 turned out to be 7 nM.
In the case of `COc1cc(C(=O)N(C)C)ccc1Nc1cc2c(-c3cnn(C)c3)cccc2cn1` [Example 25], the IC50 was found to be 28 nM.
With `COc1cc(C(=O)N2CC(OC)C2)ccc1Nc1cc2c(-c3cncnc3)cccc2cn1` [Example 15, (3-methoxy-4-((5-(pyrimidin-5-yl)isoquinolin-3-yl)amino)phenyl)(3-methoxyazetidin-1-yl)methanone] the figure was 98 nM; with `CCOc1cc(-c2nncn2C)ccc1Nc1ncc2ccnc(NCC(C)(C)OC)c2n1` [Example 188], 2 nM.
For the compound `Cc1ncc(-c2ccc(Nc3cc4c(-c5cnn(C)c5)cccc4cn3)c(Cl)c2)n1C` [Example 11, N-(2-chloro-4-(1,2-dimethyl-1H-imidazol-5-yl)phenyl)-5-(1-methyl-1H-pyrazol-4-yl)isoquinolin-3-amine], the IC50 was found to be 6 nM.
With `COc1cc(-c2nncn2C)ccc1Nc1ncc2c(C)cnc(NCC3(C)CCOC3)c2n1` (stereo not drawn) [Example 156, N^2-(2-methoxy-4-(4-methyl-4H-1,2,4-triazol-3-yl)phenyl)-5-methyl-N^8-((3-methyltetrahydrofuran-3-yl)methyl)pyrido[3,4-d]pyrimidine-2,8-diamine] the figure was 5 nM; with `COc1cc(-c2cnn(C)c2)ccc1Nc1cc2c(NCC3CC3)nccc2cn1` [Example 106, N1-(cyclopropylmethyl)-N7-(2-methoxy-4-(1-methyl-1H-pyrazol-4-yl)phenyl)-2,6-naphthyridine-1,7-diamine], 82 nM; with `COc1cc(-c2cnn(C)c2)ccc1Nc1ncc2cc(C3CC3)nc(N3CCC4(COC4)C3)c2n1` [Example 136, 6-Cyclopropyl-N-(2-methoxy-4-(1-methyl-1H-pyrazol-4-yl)phenyl)-8-(2-oxa-6-azaspiro[3.4]octan-6-yl)pyrido[3,4-d]pyrimidin-2-amine], 93 nM.
As to `CCOc1cc(-c2cnn(C)c2)ccc1Nc1ncc2ccnc(NCC3CC3)c2n1` [Example 101, N8-(cyclopropylmethyl)-N2-(2-ethoxy-4-(1-methyl-1H-pyrazol-4-yl)phenyl)pyrido[3,4-d]pyrimidine-2,8-diamine], the IC50 is 49 nM.
For `COc1cc(-c2cnc(C)n2C)ccc1Nc1ncc2cc(C)nc(NCC(C)(C)OC)c2n1` [Example 158], the IC50 is 3 nM.

As a reminder, the IC50 is the concentration needed to halve the response being measured.
